In patent US11707557B2, “Compositions and devices incorporating water-insoluble therapeutic agents and methods of the use thereof” (COOK MEDICAL TECHNOLOGIES LLC, priority 2014, dated 2023):
Converted amounts (≈) assume the structure as drawn.

How the values were obtained:
[1] = system: Human umbilical vein endothelial cells (HUVEC); test: Accumulation of docetaxel in HUVEC cells and effect of ultrasound; assay type: cell-based
Text: Human umbilical vein endothelial cells (HUVEC) and the associated culture media were obtained from Lonza Chemicals (Basel, Switzerland). All cells were applied to 48 well plates in respective media at a concentration of 5000 cells per well or filter. The cells were allowed to equilibrate for 3 days at which time they became approximately 80% confluent. In the 48 well plates, only 24 wells were used per plate so that wells with cells appeared in a checkerboard pattern.
After 2 days, cells were ready for drug incubation with or without ultrasound treatment. The drug solutions (including radiolabelled docetaxel) were applied to the cells (0.5 ml) for 2 hours. Some cells were then ultrasonicated. Briefly, cells received a single 10-s burst of ultrasound at 4 MHz with a power density of 30 W/cm^2.
After ultrasound treatment, the drug solution was immediately removed and all cells were washed three times with 500 ul of HBSS. The amount of docetaxel retained in the cells was determined by lysing the cells in 200 ul of lysis buffer (2% Triton X100 containing 33% DMSO) and quantitation by liquid scintillation counting.

[2] = Solubility of drug in EGCG or tannic acid solutions (dried down, PBS or water added, 0.22 micron filtered, HPLC or absorbance)
Description: PBS (EGCG) or water (tannic acid) was added and the final solution filtered through a 0.22 micron filter to remove any particulates. The solutions were analyzed for drug concentration using HPLC.
PBS (EGCG) or water (tannic acid) was added and the final solution filtered through a 0.22 micron filter to remove particulates. The solution was then analyzed for drug concentration using absorbance spectroscopy at 450 nm.
PBS (EGCG) or water (tannic acid) was added and the final solution was filtered through a 0.22 micron filter to remove any particulates and the solution was analyzed for drug concentration using HPLC.
PBS (EGCG) or water (tannic acid) was added and the final solution filtered through a 0.22 micron filter to remove any particulates and the solution was analyzed for drug concentration using HPLC.
PBS (EGCG) or water (Tannic acid) was added and the final solution was filtered through a 0.22 um filter to remove any particulates and the solution was analyzed for drug concentration using HPLC.
Method: drug and EGCG or tannic acid were dried down from acetonitrile (or methanol for tannic acid) solutions at various drug to EGCG or tannic acid ratios. PBS (EGCG) or water (Tannic acid pH adjusted to 7) was added and the final solution was filtered through a 0.22 um filter to remove any particulates and the solution was analyzed for drug concentration using HPLC methods.

pig bladder tissue = test: Uptake of paclitaxel into pig bladder tissue from methoxypolyethylene glycol pastes with EGCG or tannic acid; assay type: in vitro ADME; settings: MEPEG paste with EGCG or tannic acid, 5% drug, urothelial or perivascular side, 2 hours
Description: Methods: Fresh ex vivo pig bladders were cut into 2 cm diameter pieces and laid on franz diffusions cells. […] 100 mg of paste was applied to either the perivascular or urothelial side of the bladder tissue and 200 ul of tyrodes buffer pH 7.4 was added. The tissue was incubated for 2 hours at 37° C. and then the diffusion cell was disassembled, the tissue was washed free of remaining paste with excess tyrodes and the tissues were then frozen and cryosectioned for radioactivity counting by liquid scintillation methods.

Row | Structure (SMILES) | effect of ultrasound on uptake of drug into cells ([1]; 10-s burst, 4 MHz, 30 W/cm^2, all formulations) | uptake of docetaxel from ECGC formulations relative to micellar formulation ([1]; 2 hours incubation) | solubility ([2]; EGCG solution (200 mg/ml) in PBS, aqueous with cosolvent or surfactant or cyclodextrin, thermodynamic from solid, drug concentration solubilised at maximum EGCG concentration, EGCG 200 mg per ml, PBS) | effect of temperature on solubility ([2]; EGCG solutions) | stability of EGCG solutions of the drug ([2]; EGCG solutions, 24 hours) | stability of tannic acid solutions of the drug ([2]; tannic acid concentrations above 150 mg/ml, 24 hrs) | effect of temperature on solubility ([2]; tannic acid solutions, 37° C. or 50° C. compared to 23° C.) | solubility ([2]; water, free solubility in water, no EGCG or tannic acid) | penetration of paclitaxel into the bladder tissue (pig bladder tissue)
1 | CC(=O)O[C@@]12CO[C@@H]1C[C@H](O)[C@@]1(C)C(=O)[C@H](O)C3=C(C)[C@@H](OC(=O)[C@H](O)[C@@H](NC(=O)OC(C)(C)C)c4ccccc4)C[C@@](O)([C@@H](OC(=O)c4ccccc4)[C@H]21)C3(C)C [docetaxel] | increased the uptake | approximately 4 fold | ~1500 µg/mL (≈ 1860 µM) | no effect of temperature | stable over 24 hours | not stable over 24 hrs | no effect of temperature | 5 to 7 µg/mL (≈ 6.19 to 8.66 µM) | –
2 | CC(=O)O[C@H]1C(=O)[C@@]2(C)[C@H]([C@H](OC(=O)c3ccccc3)[C@]3(O)C[C@H](OC(=O)[C@H](O)[C@@H](NC(=O)c4ccccc4)c4ccccc4)C(C)=C1C3(C)C)[C@]1(OC(C)=O)CO[C@@H]1C[C@@H]2O [paclitaxel] | – | – | – | – | – | – | – | – | allowed for the penetration
